Data as given in patent publication US11572350B1, “Benzothia(di)azepine compounds and their use as bile acid modulators” (Albireo AB, priority 2020, dated 2023).

Legend:
human LBAT = biological target: T1, human LBAT (Homo sapiens, UniProt Q14973); assay: LBAT (h/m) assay: 3H-taurocholic acid uptake in human LBAT-overexpressing cells; type: cell-based; settings: 0.3 μM 3H-taurocholic acid and 7.5 μM cold taurocholic acid, 20 minutes, read-out: hLBAT IC50
T1 construct: expressed in transfected cells; kept under Geneticin selection
T1 sequence (Q14973 1-349): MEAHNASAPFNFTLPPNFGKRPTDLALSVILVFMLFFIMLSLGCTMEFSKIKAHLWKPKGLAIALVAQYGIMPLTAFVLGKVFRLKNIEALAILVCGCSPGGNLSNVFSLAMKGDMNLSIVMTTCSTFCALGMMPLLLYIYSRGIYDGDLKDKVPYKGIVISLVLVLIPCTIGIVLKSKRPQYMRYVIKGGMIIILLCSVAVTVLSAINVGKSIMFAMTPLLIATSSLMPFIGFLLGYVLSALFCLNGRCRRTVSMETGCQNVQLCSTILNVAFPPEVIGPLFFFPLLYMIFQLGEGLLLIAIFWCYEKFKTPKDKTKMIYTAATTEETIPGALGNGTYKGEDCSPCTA
Method: LBAT (h/m) Assay Protocol
20,000 cells (Human or Mouse LBAT-overexpressing cells) were seeded in 96-wells plate (Corning CLS3809) in 100 μL MEM-alpha medium (Gibco 12571-063) supplemented with 10% FBS (Gibco 10438026) containing Geneticin (Gibco 10131-027) (1 mg/mL) and incubated at 37° C. in 5% CO2 for 24 hours. After incubation, media was decanted from the wells and cells were washed two times with 300 μL of basal MEM-alpha medium (FBS-free). After decanting basal MEM-alpha medium each time, plates were tapped against paper towel to ensure maximum removal of residual media. For human LBAT, incubation mix was prepared by adding test inhibitor dilutions (3-fold serial dilution in DMSO (Sigma D2650), 10 points) in MEM-alpha (without FBS) containing 0.3 μM 3H-taurocholic acid (ARC ART-1368) and 7.5 μM cold taurocholic acid (Sigma T4009) (maintaining 0.2% final DMSO concentration). For mouse LBAT, incubation mix was prepared by adding test inhibitor dilutions (3-fold serial dilution in DMSO, 10 points) in MEM-alpha (without FBS) containing 0.3 μM 3H-taurocholic acid and 25 μM cold taurocholic acid maintaining 0.2% final DMSO concentration). 50 μL of incubation mix containing test inhibitors was then added to the wells (in duplicate) and the plates were incubated for 20 minutes in a CO2 incubator at 37° C. After incubation, the reaction was stopped by keeping the plates on ice water mix for 2-3 minutes and then the incubation mix was aspirated completely from the wells. The wells were washed two times with 250 μL of chilled unlabelled 1 mM taurocholic acid dissolved in HEPES (Gibco 15630080)-buffered (10 mM) HBSS (Gibco 14175079) (pH 7.4). The plates were tapped against a paper towel after every wash to ensure maximum removal of blocking buffer.
100 μL of MicroScint-20 (PerkinElmer 6013621) was added to the wells and kept overnight at room temperature before reading the plates in TopCount NXT™ Microplate Scintillation and Luminescence Counter from PerkinElmer under 3H Test protocol (set at 120 seconds reading time per well, with normal plate orientation).
(§1) Preparation of Test Compound Dilutions
(§2) All test compounds were provided in powder form at room temperature. 10 mM DMSO stocks of the test compounds were prepared, aliquoted and stored at −20° C. From the 10 mM DMSO stock of the compounds, a 3-fold serial dilution in DMSO was prepared to get a total of 10 dilutions of the test compounds. 0.5 μL of this dilution in DMSO was added to 250 μL of FBS-free basal media containing 3H-taurocholic acid and cold taurocholic acid to prepare the incubation mixture.

human IBAT = biological target: T2, human IBAT (Homo sapiens, UniProt Q12908); assay: IBAT (h/m) assay: 3H-taurocholic acid uptake in human IBAT-overexpressing cells; type: cell-based; settings: 0.25 μM 3H-taurocholic acid and 5 μM cold taurocholic acid, 20 minutes, highest test concentration 10 μM, read-out: hIBAT IC50
T2 construct: expressed in transfected cells; kept under Puromycin selection
T2 sequence (Q12908 1-348): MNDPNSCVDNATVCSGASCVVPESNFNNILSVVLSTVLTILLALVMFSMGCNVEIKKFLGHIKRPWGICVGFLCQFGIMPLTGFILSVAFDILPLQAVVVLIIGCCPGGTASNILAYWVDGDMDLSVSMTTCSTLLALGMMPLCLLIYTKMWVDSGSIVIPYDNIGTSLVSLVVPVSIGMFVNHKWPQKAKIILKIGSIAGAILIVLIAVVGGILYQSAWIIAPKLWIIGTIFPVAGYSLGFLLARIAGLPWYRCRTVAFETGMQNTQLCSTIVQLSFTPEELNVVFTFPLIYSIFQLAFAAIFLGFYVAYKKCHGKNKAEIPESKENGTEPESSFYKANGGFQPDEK
Method: IBAT (h/m) Assay Protocol
10,000 cells (Human or Mouse IBAT-overexpressing cells) were seeded in 96-wells plate (Corning CLS3809) in 200 μL MEM-alpha medium (Gibco 12571-063) supplemented with 10% FBS (Gibco 10438026) containing Puromycin (Gibco A1113803) (10 μg/mL) and incubated at 37° C. in 5% CO2 for 48 hours. After incubation, media was decanted from the wells and cells were washed two times with 300 μL of basal MEM-alpha medium (FBS-free). After decanting basal MEM-alpha medium each time, plates were tapped against paper towel to ensure maximum removal of residual media. Test inhibitor dilutions (highest test concentration being 10 μM, 3-fold serial dilution, 10 points) prepared in DMSO (Sigma D2650) were added in incubation mix (maintaining 0.2% final DMSO concentration) containing 0.25 μM 3H-taurocholic acid (ARC ART-1368) and 5 μM of cold taurocholic acid (Sigma T4009). 50 μL of incubation mix containing test inhibitors was then added to the wells (in duplicate) and the plates were incubated for 20 minutes in a CO2 incubator at 37° C. After incubation, the reaction was stopped by keeping the plates on ice water mix for 2-3 minutes and then the incubation mix was aspirated completely from the wells. The wells were washed two times with 250 μL of chilled unlabelled 1 mM taurocholic acid dissolved in HEPES (Gibco 15630080)-buffered (10 mM) HBSS (Gibco 14175079) (pH 7.4). The plates were tapped against a paper towel after every wash to ensure maximum removal of blocking buffer.
100 μL of MicroScint-20 (PerkinElmer 6013621) was added to the wells and kept overnight at room temperature before reading the plates in TopCount NXT™ Microplate Scintillation and Luminescence Counter from PerkinElmer under 3H Test protocol (set at 120 seconds reading time per well).
as §1, §2

| SMILES | IC50 (human LBAT) [nM] | IC50 (human IBAT) [nM] |
| --- | --- | --- |
| CCCCC1CN(c2ccccc2)c2cc(SCC)c(O/C=C/C(=O)O)cc2S(=O)(=O)N1 (racemic) [Example 4, (E)-3-((3-Butyl-7-(ethylthio)-1,1-dioxido-5-phenyl-2,3,4,5-tetrahydro-1,2,5-benzothiadiazepin-8-yl)oxy)acrylic acid] | 3.4 | > 10000 |
| CCCCC1CN(c2ccc(F)cc2)c2cc(SC)c(O/C=C/C(=O)O)cc2S(=O)(=O)N1 (single isomer, unassigned) [Example 2, (E)-3-((3-butyl-5-(4-fluorophenyl)-7-(methylthio)-1,1-dioxido-2,3,4,5-tetrahydro-1,2,5-benzothiadiazepin-8-yl)oxy)acrylic acid] | 278 | > 10000 |
| CCCCC1CN(c2ccccc2)c2cc(SCC)c(O/C=C/C(=O)O)cc2S(=O)(=O)N1 (single isomer, unassigned) [Example 5, (E)-3-((3-butyl-7-(ethylthio)-1,1-dioxido-5-phenyl-2,3,4,5-tetrahydro-1,2,5-benzothiadiazepin-8-yl)oxy)acrylic acid] | 3.4 | 8810 |
| CCCCC1CN(c2ccc(F)cc2)c2cc(SCC)c(O/C=C/C(=O)O)cc2S(=O)(=O)C1 (single isomer, unassigned) [Example 8, (E)-3-((3-butyl-7-(ethylthio)-5-(4-fluorophenyl)-1,1-dioxido-2,3,4,5-tetrahydro-1,5-benzothiazepin-8-yl)oxy)acrylic acid] | > 333 | > 10000 |
| CCCCC1CN(c2ccc(F)cc2)c2cc(SC)c(O/C=C(\F)C(=O)O)cc2S(=O)(=O)C1 (single isomer, unassigned) [Example 11, (Z)-3-((3-butyl-5-(4-fluorophenyl)-7-(methylthio)-1,1-dioxido-2,3,4,5-tetrahydro-1,5-benzothiazepin-8-yl)oxy)-2-fluoroacrylic acid] | 0.9 | 519 |
| CCCCC1CN(c2ccc(F)cc2)c2cc(SC)c(O/C=C(\F)C(=O)O)cc2S(=O)(=O)C1 (single isomer, unassigned) [Example 12, (Z)-3-((3-butyl-5-(4-fluorophenyl)-7-(methylthio)-1,1-dioxido-2,3,4,5-tetrahydro-1,5-benzothiazepin-8-yl)oxy)-2-fluoroacrylic acid] | 15 | 1420 |
| CCCCC1CN(c2ccccc2)c2cc(SCC)c(O/C=C(\F)C(=O)O)cc2S(=O)(=O)C1 (single isomer, unassigned) [Example 14, (Z)-3-((3-butyl-7-(ethylthio)-1,1-dioxido-5-phenyl-2,3,4,5-tetrahydro-1,5-benzothiazepin-8-yl)oxy)-2-fluoroacrylic acid] | 21 | > 10000 |

Further lines, results first:

| IC50 (human LBAT) [nM] | IC50 (human IBAT) [nM] | SMILES |
| --- | --- | --- |
| 1.3 | 1790 | CCCCC1CN(c2ccccc2)c2cc(SCC)c(O/C=C(\F)C(=O)O)cc2S(=O)(=O)N1C (racemic) [Example 24, (Z)-3-((3-butyl-7-(ethylthio)-2-methyl-1,1-dioxido-5-phenyl-2,3,4,5-tetrahydro-1,2,5-benzothiadiazepin-8-yl)oxy)-2-fluoroacrylic acid] |
| 13 | 481 | CCCCC1CN(c2ccc(F)cc2)c2cc(SC)c(O/C=C(\F)C(=O)O)cc2S(=O)(=O)N1 (racemic) [Example 27, (Z)-3-((3-butyl-5-(4-fluorophenyl)-7-(methylthio)-1,1-dioxido-2,3,4,5-tetrahydro-1,2,5-benzothiadiazepin-8-yl)oxy)-2-fluoroacrylic acid] |
| 5.5 | > 3330 | CCCCC1CN(c2ccc(F)cc2)c2cc(SCC)c(O/C=C(\F)C(=O)O)cc2S(=O)(=O)C1 (single isomer, unassigned) [Example 17, (Z)-3-((3-butyl-7-(ethylthio)-5-(4-fluorophenyl)-1,1-dioxido-2,3,4,5-tetrahydro-1,5-benzothiazepin-8-yl)oxy)-2-fluoroacrylic acid] |
